# Laboratory results as given in paper PMC11955804, “Histidine-rich enantiomeric peptide coacervates enhance antigen sequestration and presentation to T cells” (Chemical Science, 2025).
# What was measured:
# [1] = Droplet coalescence assay; type: physicochemical; details: video still images over 15 min; mixing of fluorophore-loaded droplets
# Method: wavelength range of 215–260 nm with a bandwidth of 1.00 nm, 0.5 nm step. Solvent background was subtracted from each spectrum and data converted to mean residue ellipticity (MRE).
# Droplet coalescence assays
# Experiments were conducted to visualize the dynamic process of droplet fusion by capturing a series of still images over 15 min, with each acquisition every 500 ms. Contrast and brightness were adjusted to ensure optimal visibility of the coacervates, and noise cancellation was applied to reduce background interference. Frame correction aligned the images to account for shifts that occurred during capture. Additional enhancements included sharpening to visualize finer details and color correction to ensure that the visual representation closely matched the actual observation. The images were meticulously stacked to create a continuous video sequence that provided a dynamic view of the peptides' behavior, showing the evolution of coacervates from their initial formation, through stabilization and fusion. Significant fusion events were identified and marked with arrows. Advanced tracking algorithms were employed to follow movement and changes within the coacervates, and event segmentation was used to isolate specific interactions […]
# Stem cell-derived cardiomyocytes and confocal microscopy […]
# [2] = tested on: BMDCs overlaid with DOBW cells; assay: In vitro antigen presentation assay, MHC class II (BMDCs + DOBW hybridoma, IL-2 ELISA); details: DOBW overlay; for IL-2 levels at 4 °C compared to 37 °C controls: OVA-loaded coacervates, DCs at 4 °C, ELISA
# Method: To test internalization mechanisms, we utilized in vitro antigen presentation assays (Fig. 4A). Here, bone marrow-derived dendritic cells (BMDCs) are treated with coacervates loaded with the model antigen ovalbumin (OVA). […] Secretion of IL-2 in response to peptide-MHC recognition is an indirect measure of coacervate uptake and can be quantified using ELISA (enzyme-linked immunosorbent assay) (Fig. 4A). […] We next used pharmacological inhibitors of endocytic mechanisms to explore mechanisms of cell entry (Fig. 4E). BMDCs were treated with inhibitors of clathrin-mediated endocytosis (chlorpromazine, CPZ),[58] dynamin-dependent endocytosis (dynasore, Dyn),[59] macropinocytosis (wortmannin, Wort),[60] cholesterol (methyl β-CD),[61] and IPA3 the regulatory domain of PAK1 (IPA-3)[62] for one h prior to antigen presentation assays.
# Cellular uptake and antigen presentation assays
# Uptake of coacervates by BMDCs was measured using in vitro antigen presentation assays.
# BMDCs were plated in 96-well round-bottom plates (1×10^5 cells/well) and maintained at 4°C or
# treated with 10 mM deoxy glucose and 10 mM sodium azide in PBS (ATP depletion) for 1 h prior
# to addition of OVA-loaded coacervates. Final OVA concentration was 1 g/mL for time-
# dependent measurements and 10 g/mL for comparison between enantiomers. Cells maintained at
# 37°C and complete RPMI media served as controls. Soluble OVA and PBS treated cells were used as controls for antigen delivery. Following treatment (2 h, 4 h, 24 h, 48 h, or 72 h), BMDCs were
# washed to remove extracellular coacervates and DOBW hybridoma cells (1:5, DC: DOBW) were
# overlaid for 16 h. The cells were then centrifuged at 300 × g for 5 min, and the supernatant was
# collected for IL-2 quantitation by ELISA according to the manufacturer protocol (Biotechne,
# #DY402). The amount of IL-2 produced under each condition was measured.
# Inhibition of coacervate uptake was measured by adding the inhibitors 1 h
# prior to coacervate treatment for 24 h followed by hybridoma overlay and IL-2 measurements.
# DCs = assay: DQ-OVA delivery to lysosomes (fluorescence microscopy); type: cell-based, mouse; details: DQ-OVA loaded coacervates, 2.5 μg/mL DQ-OVA, fluorescence microscopy
# Method: page 13: Flow cytometry The transfected A549 cells were washed with FACS wash buffer (FWB; 1× PBS with 10% […] Cells were washed again with FWB and then resuspended in 100 µl of PBS with eBioscience™ Fixable Viability Dye eFluor™ 506 antibody. The staining was quenched with FWB following a 20 min incubation. The cells were centrifuged, washed 2× times with FWB, and resuspended in 100 µl FWB with CD55 (DAF) Antibody (anti-human; miltenyibiotec Cat#130-126-382). After 20 min, staining was quenched, cells washed twice and resuspended in 200 µl FWB for acquisition. Single-stained cells stained with eFluor™ 506, CD55 (DAF) Antibody, were used as compensation controls. Samples were acquired using an Agilent NovoCyte 3000 flow cytometer. Data were analyzed with FlowJo version 10. […] was quantified as the percentage CD55+ cells, considering untreated cells as the negative control and Lipofectamine treated ones as the positive control. Antigen delivery to lysosomes and inhibitor effects DC 2.4 cells were cultured in RPMI-1640 (Catalog number: 11875093) medium supplemented with 10% FBS, 100 U/mL penicillin, 100 μg/mL streptomycin, and 1 mM sodium pyruvate. Cells were plated in 8-well chamber slides (5000 cells in 200 μL of media) and incubated for 24 h prior to addition of DQ-OVA loaded coacervates for 2 h, 6 h, or 24 h (final DQ-OVA concentration was 2.5 μg/mL). Cells treated with PBS or soluble OVA served as controls. Cells were then washed and fixed using 4% Paraformaldehyde (PFA) for 15 min at RT and permeabilized with 0.1% Triton X-100 for 5 min prior to nuclear staining with Hoechst stain (Catalog number: 62249, Thermo Fischer Scientific; 10 μg/mL). Cells were imaged (60×) on Lionheart FX automated microscope (BioTek Instruments, Inc.) with controlled exposure S13 page 14: parameters across two channels: eGFP and DAPI.
# [3] = tested on: CD4+T cells from OT-II mice on BMDCs; assay: OT-II CD4+ T cell proliferation; type: cell-based, mouse; details: BMDCs treated with OVA-loaded coacervates 24 h, CTV-labeled OT-II T cells ~66 h, flow cytometry
# Method: (§1) page 14: parameters across two channels: eGFP and DAPI. […] Cells were incubated at 37°C (protected from light) for 20 min, after which 5× staining volume of EasySep Buffer was added for another 5 min of incubation. The cells were counted again, centrifuged at 300 g for 5 min, resuspended in RPMI-1640 (Gibco 31800- 022) with 10% FBS (R and D Systems […]), 10 mM HEPES (Sigma H0887), 1× MEM NEAA (Gibco 11140-050), 1 mM sodium pyruvate (Gibco 11360-070), 1× pen-strep glutamine (Gibco 10378-016), and 55 μM β-mercaptoethanol (Gibco 21985-023) added fresh, and then plated onto treated BMDCs. The plates were incubated for ~66 h, after which supernatants were collected for Mouse Adaptive Immune CodePlex Secretome analyses (Bruker Cellular Analysis, Inc), and cells were collected for flow cytometry studies. Flow cytometry Total cells from the spleen and lymph nodes of OT-I/OT-II mice were washed with FACS […] staining. […] Data were analyzed with FlowJo version 10. Proliferation was quantified as the percentage of daughter cells out of single, live, CD4+ or CD8+T cells, gated as having a lower CTV fluorescence intensity than the peak of highest fluorescence (undivided). […] Data are expressed as mean ± S.E.M. and statistical analysis was performed using a one-way or two-way ANOVA with Tukey/Sidak's/Dunnett's multiple comparison test. *p ≤ 0.05, **p ≤ 0.01, ***p ≤ 0.001, ****p ≤ 0.0001. […]
# [4] = tested on: CD8+T cells from OT-I mice on BMDCs; assay: OT-I CD8+ T cell proliferation; type: cell-based, mouse; details: BMDCs treated with OVA-loaded coacervates 24 h, CTV-labeled OT-I T cells ~66 h, flow cytometry
# Method: as §1
droplet fusion (coalescence) [1],Substance,IL-2 levels at 4 °C compared to 37 °C controls [2],lysosomal processing of DQ-OVA delivered by coacervates (DCs),CD4+T cell proliferation [3],"IL-2 production compared to (GHGLY)4 at the same antigen dose ([2]; coacervates loaded with 1 μM OVA, pre-treatment 2-72 h)",CD8+T cell proliferation [4]
multiple rapid fusion events,(GHGLY)4 [GL 20],significantly lower IL-2 levels,Green fluorescent puncta were detected,slightly higher,–,–
did not exhibit fusion behavior,(GHGVY)4 [GV 20],significantly lower IL-2 levels,Green fluorescent puncta were detected,–,significantly higher,higher percentage of proliferated cells
